Measured values: ChEMBL document CHEMBL4680133, “Novel nitroimidazole derivatives evaluated for their trypanocidal, cytotoxic, and genotoxic activities” (Eur J Med Chem, 2020)

Assays:
[1] = Selectivity index, ratio of GI50 for human HepG2 cells assessed as reduction in cell viability measured after 24 hrs by WST1 assay to IC50 for antitrypanosomal activity against Trypanosoma cruzi Y axenic amastigotes infected in African green monkey Vero cells; format: toxicity; details: read-out: Selectivity Index
Trypanosoma cruzi [2] = assay: Antitrypanosomal activity against Trypanosoma cruzi Y axenic amastigotes infected in African green monkey Vero cells after 24 hrs by MTT assay; format: functional, organism-based
[3] = Toxicity in Salmonella typhimurium YG1021 at 5 to 100 ug/plate after 20 mins by colony counting method; details: salmonella enterica subsp. enterica serovar typhimurium, dose 5-100 µg
[4] = Selectivity index, ratio of GI50 for mouse RAW264.7 cells assessed as reduction in cell viability measured after 24 hrs by WST1 assay to IC50 for antitrypanosomal activity against Trypanosoma cruzi Y axenic amastigotes infected in African green monkey Vero cells; format: toxicity; details: read-out: Selectivity Index
[5] = Mutagenicity in Salmonella typhimurium TA97 assessed as revertant/ug measured after 20 mins in absence of S9 fraction by microsome assay; format: toxicity; details: salmonella enterica subsp. enterica serovar typhimurium, microsomes
[6] = Cytotoxicity against mouse RAW264.7 cells assessed as reduction in cell viability measured after 24 hrs by WST1 assay; format: cell-based
[7] = Mutagenicity in Salmonella typhimurium TA97 assessed as revertant/ug measured after 20 mins in presence of S9 fraction by microsome assay; format: toxicity, subcellular; details: salmonella enterica subsp. enterica serovar typhimurium, s9, 20 min
[8] = Mutagenicity in Salmonella typhimurium TA97 measured after 20 mins in presence of S9 fraction by microsome assay; format: toxicity, subcellular; details: salmonella enterica subsp. enterica serovar typhimurium, s9, 20 min, dose 5-100 µg
RAW264.7 [9] = assay: Genotoxicity in mouse RAW264.7 cells assessed as mitotic index at 2135 uM measured after 24 hrs by micronucleus test (reference value: 40 to 249); format: toxicity, cell-based; details: raw264.7, 24 h
[10] = Mutagenicity in Salmonella typhimurium TA98 measured after 20 mins in absence of S9 fraction by microsome assay; format: toxicity; details: salmonella enterica subsp. enterica serovar typhimurium, microsomes, dose 5-100 µg
[11] = Selectivity index, ratio of GI50 for mouse RAW264.7 cells assessed as reduction in cell viability measured after 24 hrs by WST1 assay to IC50 for antitrypanosomal activity against bloodstream form of Trypanosoma cruzi Y trypomastigotes infected in African green monkey Vero cells; format: toxicity; details: read-out: Selectivity Index
[12] = Mutagenicity in Salmonella typhimurium YG1024 at 5 to 100 ug/plate after 20 mins by microsome assay; format: toxicity; details: salmonella enterica subsp. enterica serovar typhimurium, microsomes, dose 5-100 µg
HepG2 [13] = assay: Genotoxicity in human HepG2 assessed as mitotic index at 213 uM measured after 24 hrs by micronucleus test (reference value: 61 to 108); format: toxicity, cell-based; details: hepg2, 24 h
[14] = Toxicity in Salmonella typhimurium TA97 at 100 ug/plate measured after 20 mins in absence of S9 fraction by colony counting method; details: salmonella enterica subsp. enterica serovar typhimurium, dose 100 µg
[15] = Mutagenicity in Salmonella typhimurium TA97 measured after 20 mins in absence of S9 fraction by microsome assay; format: toxicity; details: salmonella enterica subsp. enterica serovar typhimurium, microsomes, dose 5-100 µg
[16] = Genotoxicity in human HepG2 assessed as survival at 4270 uM measured after 24 hrs by micronucleus test (reference value: 100%); format: toxicity, cell-based; details: HepG2 cells, read-out: Survival
[17] = Mutagenicity in Salmonella typhimurium TA102 measured after 20 mins in absence of S9 fraction by microsome assay; format: toxicity; details: salmonella enterica subsp. enterica serovar typhimurium, microsomes, dose 5-100 µg
[18] = Mutagenicity in Salmonella typhimurium TA100 assessed as revertant/ug measured after 20 mins in presence of S9 fraction by microsome assay; format: toxicity, subcellular; details: salmonella enterica subsp. enterica serovar typhimurium, s9, 20 min
[19] = Mutagenicity in Salmonella typhimurium YG1021 at 5 to 100 ug/plate after 20 mins by microsome assay; format: toxicity; details: salmonella enterica subsp. enterica serovar typhimurium, microsomes
[20] = Mutagenicity in Salmonella typhimurium TA98 measured after 20 mins in presence of S9 fraction by microsome assay; format: toxicity, subcellular; details: salmonella enterica subsp. enterica serovar typhimurium, s9, 20 min, dose 5-100 µg
[21] = Mutagenicity in Salmonella typhimurium TA102 measured after 20 mins in presence of S9 fraction by microsome assay; format: toxicity, subcellular; details: salmonella enterica subsp. enterica serovar typhimurium, s9, 20 min, dose 5-100 µg
[22] = Selectivity index, ratio of GI50 for human HepG2 cells assessed as reduction in cell viability measured after 24 hrs by WST1 assay to IC50 for antitrypanosomal activity against bloodstream form of Trypanosoma cruzi Y trypomastigotes infected in African green monkey Vero cells; format: toxicity; details: read-out: Selectivity Index
[23] = Mutagenicity in Salmonella typhimurium TA100 assessed as revertant/ug measured after 20 mins in absence of S9 fraction by microsome assay; format: toxicity; details: salmonella enterica subsp. enterica serovar typhimurium, microsomes
[24] = Genotoxicity in mouse RAW264.7 cells assessed as survival at 427 uM measured after 24 hrs by micronucleus test (reference value: 100%); format: toxicity, cell-based; details: read-out: Survival
[25] = Mutagenicity in Salmonella typhimurium TA100 measured after 20 mins in presence of S9 fraction by microsome assay; format: toxicity, subcellular; details: salmonella enterica subsp. enterica serovar typhimurium, s9, 20 min, dose 5-100 µg
[26] = Genotoxicity in mouse RAW264.7 cells assessed as survival at 213 uM measured after 24 hrs by micronucleus test (reference value: 100%); format: toxicity, cell-based; details: read-out: Survival
Trypanosoma cruzi [27] = assay: Antitrypanosomal activity against bloodstream form of Trypanosoma cruzi Y trypomastigotes infected in African green monkey Vero cells assessed as increase in parasite lysis measured after 24 hrs by Neubauer chamber method; format: functional, organism-based
[28] = Mutagenicity in Salmonella typhimurium TA100 measured after 20 mins in absence of S9 fraction by microsome assay; format: toxicity; details: salmonella enterica subsp. enterica serovar typhimurium, microsomes, dose 5-100 µg
[29] = Cytotoxicity against human HepG2 cells assessed as reduction in cell viability measured after 24 hrs by WST1 assay; format: cell-based
HepG2 [30] = assay: Genotoxicity in human HepG2 assessed as number of micronucleated cells at 1750 uM measured after 24 hrs by micronucleus test (reference value: 14 to 18); format: toxicity, cell-based; details: hepg2, 24 h
HepG2 [31] = assay: Genotoxicity in human HepG2 assessed as number of micronucleated cells at 3500 uM measured after 24 hrs by micronucleus test (reference value: 14 to 18); format: toxicity, cell-based; details: hepg2, 24 h
HepG2 [32] = assay: Genotoxicity in human HepG2 assessed as mitotic index at 350 uM measured after 24 hrs by micronucleus test (reference value: 61 to 108); format: toxicity, cell-based; details: hepg2, 24 h
RAW264.7 [33] = assay: Genotoxicity in mouse RAW264.7 cells assessed as mitotic index at 350 uM measured after 24 hrs by micronucleus test (reference value: 40 to 249); format: toxicity, cell-based; details: raw264.7, 24 h
HepG2 [34] = assay: Genotoxicity in human HepG2 assessed as mitotic index at 3500 uM measured after 24 hrs by micronucleus test (reference value: 61 to 108); format: toxicity, cell-based; details: hepg2, 24 h
[35] = Genotoxicity in human HepG2 assessed as survival at 350 uM measured after 24 hrs by micronucleus test (reference value: 100%); format: toxicity, cell-based; details: HepG2 cells, read-out: Survival
RAW264.7 [36] = assay: Genotoxicity in mouse RAW264.7 cells assessed as mitotic index at 3500 uM measured after 24 hrs by micronucleus test (reference value: 40 to 249); format: toxicity, cell-based; details: raw264.7, 24 h
HepG2 [37] = assay: Genotoxicity in human HepG2 assessed as number of micronucleated cells at 175 uM measured after 24 hrs by micronucleus test (reference value: 14 to 18); format: toxicity, cell-based; details: hepg2, 24 h
HepG2 [38] = assay: Cytotoxicity against human HepG2 cells assessed as induction of membrane damage at 17.5 to 350 uM measured after 24 hrs by LDH assay; format: cell-based; details: hepg2, 24 h, dose 17.5-350 µM
[39] = Genotoxicity in human HepG2 assessed as survival at 3500 uM measured after 24 hrs by micronucleus test (reference value: 100%); format: toxicity, cell-based; details: HepG2 cells, read-out: Survival

## Cn1cnc([N+](=O)[O-])c1-n1cc(C2CC2)nn1
[1]
  selectivity ratio at 24 h: > 35.5
Trypanosoma cruzi [2]
  IC50: 12 µM
[3]
  Activity: Non-Toxic
[4]
  selectivity ratio at 24 h: > 35.5
[5]
  Activity: 6.31 revertants/µg
[6]
  GI50 at 24 h: > 427 µM
[7]
  Activity: 3.833 µg
[8]
  Activity: Toxic
RAW264.7 [9]
  Activity_index: 37
[10]
  Activity: Non-Toxic
[11]
  selectivity ratio at 24 h: > 79
[12]
  Activity: Non-Toxic
HepG2 [13]
  Activity_index: 97
[14]
  Activity: Toxic
[15]
  Activity: Toxic
[16]
  viability at 24 h, 4270 µM: 91%
[17]
  Activity: Toxic
[18]
  Activity: 0.278 revertants/µg
[19]
  Activity: Non-Toxic
[20]
  Activity: Non-Toxic
[21]
  Activity: Toxic
[22]
  selectivity ratio at 24 h: > 79
[23]
  Activity: 2.42 revertants/µg
[24]
  viability at 24 h, 427 µM: 99%
[25]
  Activity: Toxic
[26]
  viability at 24 h, 213 µM: 99%
Trypanosoma cruzi [27]
  IC50: 5.4 µM
[28]
  Activity: Toxic
[29]
  GI50 at 24 h: > 427 µM

## CCCCCc1ccc(-c2cn(-c3c([N+](=O)[O-])ncn3C)nn2)cc1
HepG2 [30]
  Activity: 35
HepG2 [31]
  Activity: 42
HepG2 [32]
  Activity_index: 91
[1]
  selectivity ratio at 24 h: > 2.46
Trypanosoma cruzi [2]
  IC50: 142 µM
[3]
  Activity: Toxic
[4]
  selectivity ratio at 24 h: > 0.25
[5]
  Activity: 1.34 revertants/µg
[6]
  GI50 at 24 h: 35.8 µM
[7]
  Activity: 8.494 µg
[8]
  Activity: Toxic
[10]
  Activity: Non-Toxic
[11]
  selectivity ratio at 24 h: 2.77
[12]
  Activity: Toxic
RAW264.7 [33]
  Activity_index: 223
[15]
  Activity: Toxic
HepG2 [34]
  Activity_index: 53
[17]
  Activity: Toxic
[18]
  Activity: 2.46 revertants/µg
[19]
  Activity: Toxic
[35]
  viability at 24 h, 350 µM: 95%
[20]
  Activity: Non-Toxic
[21]
  Activity: Toxic
[22]
  selectivity ratio at 24 h: 27
[23]
  Activity: 2.96 revertants/µg
[25]
  Activity: Toxic
RAW264.7 [36]
  Activity_index: 115
Trypanosoma cruzi [27]
  IC50: 12.9 µM
HepG2 [37]
  Activity: 14
HepG2 [38]
  Activity: Toxic
[28]
  Activity: Toxic
[29]
  GI50 at 24 h: > 350 µM
[39]
  viability at 24 h, 3500 µM: 64%
